Converted amounts (≈) assume the structure as drawn. “And” between values parts separate entries of the source, which are not always exact repeats. Equal values may be shown once. Read-outs that look alike come from different tables or passages of the source.
Experiments:
A549 cell line = assay: SRB cytotoxicity assay, A549 lung cancer cell line; conditions: Homo sapiens, A549, 72 h, read-out: Cytotoxicity IC50 value, A549 cell line
A375.S2 cell line = assay: SRB cytotoxicity assay, A375.S2 melanoma cell line; conditions: Homo sapiens, A375-S2, 72 h, read-out: Cytotoxicity IC50 value, A375.S2 cell line
MCF7 cell line = assay: SRB cytotoxicity assay, MCF7 breast cancer cell line; conditions: Homo sapiens, MCF7, 72 h, read-out: Cytotoxicity IC50 value, MCF7 cell line
HELA cell line = assay: SRB cytotoxicity assay, HELA cervical cancer cell line; conditions: Homo sapiens, HeLa, 72 h
K562 cell line = assay: SRB cytotoxicity assay, K562 leukaemia cell line; conditions: Homo sapiens, K562, 72 h
PANC 1 cell line = assay: SRB cytotoxicity assay, PANC 1 pancreatic cancer cell line; conditions: Homo sapiens, PANC-1, 72 h, read-out: Cytotoxicity IC50 value, PANC 1 cell line
T47D cell line = assay: cells; conditions: Homo sapiens, T47D, 72 h, read-out: Cytotoxicity IC50 value, T47D cell line
Summary of the method: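 Cell lines grown in DMEM with FBS, HEPES, L-glutamine and antibiotics; cytotoxicity read by sulforhodamine B colorimetric assay giving IC50. Primary human periodontal ligament fibroblasts serve as normal cells; selectivity ratio = fibroblast IC50 divided by cancer-line IC50.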

PDL Fibroblasts = assay: SRB cytotoxicity on normal periodontal ligament fibroblasts, selective cytotoxicity; type: cell-based, Human; conditions: for IC50: Homo sapiens, Fibroblast, normal fibroblasts, SRB, 72 h, mean ± SD; for Selectivity index SI (A375.S2): IC50 on PDL fibroblasts divided by IC50 on A375.S2; for Selectivity index SI (K562): IC50 on PDL fibroblasts divided by IC50 on K562
Summary of the method: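 Human periodontal ligament fibroblasts, a primary normal culture, tested by SRB colorimetric assay for cell viability. Selectivity ratio = IC50 on normal fibroblasts divided by IC50 on the pathological cell line.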

[1] = tested on: Staphylococcus aureus (S. aureus) ATCC 6538; assay: Quantitative antimicrobial assessment (MIC) against S. aureus; type: cell-based; conditions: for Antibacterial activity (in words): esters vs free acid, Gram positive strain context; for MIC potency compared with ciprofloxacin, S. aureus: in words; for MIC: Staphylococcus aureus, ATCC6538, Gram positive, ATCC 6538
HCT116 = tested on: HCT116; parameters: method as in earlier work; conditions: colon cancer cells, Figure 1; ref Arabiyat et al. 2016a,b; 2017; Alabsi et al. 2018; Jumah 2018; AlShahrabi et al., 2020; read-out: IC50 against HCT116; cited from earlier work
SW620 = tested on: SW620; parameters: method as in earlier work; conditions: colon cancer cells, Figure 1; ref Arabiyat et al. 2016a,b; 2017; Alabsi et al. 2018; Jumah 2018; AlShahrabi et al., 2020; read-out: IC50 against SW620; cited from earlier work
[2] = tested on: Candida albicans (C. albicans) ATCC 1023; assay: Quantitative antimycotic assessment (MIC) against C. albicans; type: cell-based; conditions: in words
[3] = read-out: Cytotoxicity IC50 value, HELA cell line, SRB, 72 h, 0.1-200 μg/mL range, mean ± SD, value in brackets
[4] = read-out: Cytotoxicity IC50 value, HELA cell line, SRB, 72 h, 0.1-200 μg/mL range, mean ± SD, NI = lack of cytotoxicity in range
[5] = read-out: Cytotoxicity IC50 value, K562 cell line, SRB, 72 h, 0.1-200 μg/mL range, mean ± SD, value in brackets
[6] = read-out: Cytotoxicity IC50 value, K562 cell line, SRB, 72 h, 0.1-200 μg/mL range, mean ± SD, NI = lack of cytotoxicity in range
[7] = 0.1-200 μg/mL range, NI = lack of cytotoxicity in range

| SMILES | IC50 (A549 cell line) | IC50 (A375.S2 cell line) | IC50 (MCF7 cell line) | IC50 (HELA cell line; [3]) [µg/mL] | IC50 (HELA cell line; [4]) [µM] | IC50 (K562 cell line; [5]) [µg/mL] | IC50 (K562 cell line; [6]) | IC50 (PANC 1 cell line) | IC50 (T47D cell line) | IC50 (PDL Fibroblasts; [7]) | IC50 (PDL Fibroblasts; value in brackets) [µg/mL] | Selectivity index SI (A375.S2) (PDL Fibroblasts) | Antibacterial activity (in words) [1] | IC50 (HCT116) [µM] | IC50 (SW620) [µM] | Selectivity index SI (MCF7) (PDL Fibroblasts; IC50 on PDL fibroblasts divided by IC50 on MCF7) | MIC potency compared with ciprofloxacin, S. aureus [1] | MIC [1] [µM] | Selectivity index SI (K562) (PDL Fibroblasts) | Antimycotic MIC potency compared with fluconazole, C. albicans [2] |
| --- | --- | --- | --- | --- | --- | --- | --- | --- | --- | --- | --- | --- | --- | --- | --- | --- | --- | --- | --- | --- |
| CCOC(=O)c1cn(C2CC2)c2c([N+](=O)[O-])c(Nc3ccc(F)cc3)c(F)cc2c1=O [2H] | 447 µM and 200 µg/mL | 271 µM and 121 µg/mL | > 200 µg/mL | 647 | 1510 ± 68.2 | 346 | 806 ± 59.2 µM | 485 µM and 208 µg/mL | 833 µM and 344 µg/mL | 560 ± 87.5 µM | 231 | 2.07 | lacked antibacterial activity |  |  |  |  |  |  |  |
| O=C(O)c1cn(C2CC2)c2c([N+](=O)[O-])c(Cl)c(F)cc2c1=O [1A] | 57.9 µM and 20.4 µg/mL | 10 µM and 3.52 µg/mL | 3.32 µM and 1.17 µg/mL | 7.02 | 19.8 ± 1.48 |  | > 200 µg/mL | 59.1 µM and 21 µg/mL | > 200 µg/mL |  |  |  | incomparably appreciable activity |  |  |  |  |  |  |  |
| CCn1cc(C(=O)O)c(=O)c2cc(F)c(Nc3ccc(Cl)cc3)c(N)c21 [A (X =Cl)] |  |  |  |  |  |  |  |  |  |  |  |  |  | 3.5 | 11.7 |  |  |  |  |  |
| CCn1cc(C(=O)O)c(=O)c2cc(F)c3c(nnn3-c3ccc(OC)cc3OC)c21 [13c, 3-(2,4-dimethoxy-phenyl)-9-ethyl-4-fluoro-6-oxo-6,9-dihydro-3H-[1,2,3] triazolo[4,5-h]quinoline-7-carboxylic acid] | 662 µM and 272 µg/mL | 487 µM and 201 µg/mL | 4.15 µM and 1.71 µg/mL | 179 | 435 ± 71.7 | 28.2 | 68.7 ± 8.04 µM | 138 µM and 56.6 µg/mL | 182 µM and 74.7 µg/mL | 172 ± 17.8 µM | 70.6 |  |  |  |  | 41.35 | significantly more potent than ciprofloxacin |  |  |  |
| COc1ccc(Nc2c(F)cc3c(=O)c(C(=O)O)cn(C4CC4)c3c2N)c(OC)c1 [4g, 8-amino-1-cyclopropyl-7-(2,4-dimethoxy-phenylamino)-6-fluoro-4-oxo-1,4-dihydro-quinoline-3-carboxylic acid] | 709 µM and 306 µg/mL | 807 µM and 348 µg/mL | 317 µM and 137 µg/mL | 120 | 277 ± 39 |  | > 200 µg/mL | 310 µM and 128 µg/mL | 1.01 mM and 435 µg/mL | > 200 µg/mL |  |  |  |  |  |  | significantly more potent than ciprofloxacin | 0.004 (≈ 1.65 ng/mL) |  |  |
| CCc1ccc(-n2nnc3c4c(cc(F)c32)c(=O)c(C(=O)O)cn4C2CC2)cc1 [5d, 9-cyclopropyl-4-fluoro-3-(4-ethyl-phenyl)-6-oxo-6,9-dihydro-3H-[1,2,3] triazolo[4,5-h]quinoline-7-carboxylic acid] | 161 µM and 63 µg/mL | 124 µM and 48.5 µg/mL | 177 µM and 69.1 µg/mL | 447 | 1140 ± 82.4 | 63.8 | 163 ± 22.6 µM | 163 µM and 63.8 µg/mL | 372 µM and 146 µg/mL | 165 ± 16.1 µM | 64.5 | 1.33 |  |  |  |  | significantly more potent than ciprofloxacin |  |  |  |
| COc1cccc(Nc2c(F)cc3c(=O)c(C(=O)O)cn(C4CC4)c3c2N)c1 [4b, 8-amino-1-cyclopropyl-6-fluoro-7-(3-methoxy-phenylamino)-4-oxo-1,4-dihydro-quinoline-3-carboxylic acid] | 229 µM and 87.6 µg/mL | 120 µM and 46 µg/mL | 177 µM and 67.7 µg/mL |  |  | 6.5 | 17 ± 2.57 µM | 155 µM and 59.2 µg/mL | 149 µM and 57.2 µg/mL | 276 ± 20.2 µM | 106 |  |  |  |  |  |  | 0.024 (≈ 9.2 ng/mL) | 16.25 |  |
| COc1ccccc1-n1nnc2c3c(cc(F)c21)c(=O)c(C(=O)O)cn3C1CC1 [5a, 9-cyclopropyl-4-fluoro-3-(2-methoxy-phenyl)-6-oxo-6,9-dihydro-3H-[1,2, and 3] triazolo [4,5-h] quinoline-7-carboxylic acid] | > 200 µg/mL | 171 µM and 67.2 µg/mL | 44.3 µM and 17.4 µg/mL | 124 | 299 ± 11.4 | 16.4 | 41.7 ± 6.86 µM | 201 µM and 78.9 µg/mL | 42.1 µM and 16.6 µg/mL | 279 ± 27.4 µM | 110 |  |  |  |  |  | significantly more potent than ciprofloxacin |  | 6.71 |  |
| CCCCc1ccc(Nc2c(F)cc3c(=O)c(C(=O)O)cn(C4CC4)c3c2N)cc1 [4e, 8-Amino-1-cyclopropyl-6-fluoro-7-(4-butyl-phenylamino)-4-oxo-1,4-dihydro-quinoline-3-carboxylic acid] | 25.1 µM and 10.3 µg/mL | 79.2 µM and 32.4 µg/mL | 107 µM and 44 µg/mL | 27.6 | 67.3 ± 6.64 | 0.002 | 0.005 ± 0.0009 µM | 20.8 µM and 8.5 µg/mL | 44.1 µM and 18 µg/mL | 43 ± 3.02 µM | 18.9 |  |  |  |  |  | significantly more potent than ciprofloxacin | 0.32 (≈ 131 ng/mL) | 8592 | more potent than antimycotic flucanozole |
| CCCCc1ccc(-n2nnc3c4c(cc(F)c32)c(=O)c(C(=O)O)cn4C2CC2)cc1 [5e, 9-cyclopropyl-4-fluoro-3-(4-butyl-phenyl)-6-oxo-6,9-dihydro-3H-[1,2,3] triazolo[4,5-h]quinoline-7-carboxylic acid] | 181 µM and 76 µg/mL | 103 µM and 43.1 µg/mL | 105 µM and 44.2 µg/mL | 153 | 364 ± 22.8 | 20.6 | 49 ± 7.2 µM | 87.1 µM and 36.5 µg/mL | 97.6 µM and 41 µg/mL | 72.6 ± 3.56 µM | 30.4 |  |  |  |  |  |  |  | 1.48 | more potent than antimycotic flucanozole |
